How the values were obtained:
bacteria = conditions: reported by Azuma et al., Peptides 21: 327-330 (2000); cited from earlier work
[1] = test system: Aspergillus fumigatus AF293 (NCPF7367); assay: microbe, parasite or virus in culture; type: cell-based; conditions: for MIC: AF293 (NCPF7367, 48 h); for MIC values (>80% reduction) AF: Aspergillus fumigatus 293, peptides, Tables 4 and 5
Procedure: (§1) Four compounds were supplied as an aqueous solution, 400 μM. Serial dilutions of each test peptide were prepared in addition to a control, which was a conventional antifungal drug, Amphoteracin B. Amphteracin B is obtained from Invitrogen or Melford laboratories.
(§2) Initial testing of the peptides was carried out against the following organisms: • 1) Aspergillus fumigatus AF293 (culture collection strain NCPF7367) • 2) Candida albicans 6862 (clinical isolate) • 3) Fusarium spp 5889 (clinical isolate) • 4) Fusarium spp 6507 (clinical isolate) • 5) Aspergillus terreus (clinical isolate) • 6) Aspergillus niger (clinical isolate) • 7) Staphylococcus aureus (Oxford strain, which is a standard reference strain used in MIC testing)
(§3) The bacterium S. aureus was tested with each of the peptides as a control. A suspension of each organism in an appropriate growth medium was added to the, dilutions of the peptides in order to give concentration ranges of 40 μM to 0.04 μM for each of the peptides, and 64-0.025 μg/ml for amphotericin B. Fungal strains were tested in RPMI media. RPMI is standard Roswell Park Memorial Institute medium (Morton, H. C., (1970) A survey of Commercially Available Tissue Culture Media. In Vitro 6: 89-108).
(§4) The final inoculum for S. aureus was 5×10^4 cfu/ml. The final inoculum for C. albicans was 2×10^3 cfu/ml. The final inoculum for Aspergillus fumigatus and for Fusarium spp was 2×10^4 cfu/ml.
(§5) Candida and S. aureus plates were read after 24 hrs incubation and the Aspergillus and Fusarium strains read after 48 hrs. The MIC was taken as the lowest drug or compound concentration that caused >80% reduction in growth compared with a drug free control.
Aspergillus fumigatus 293 (AF); and
FS1-FS4 were obtained from Bristol PHLS (British Public Health Laboratory Service UK). Aspergillus fumigatus 293 is publicly available as culture collection strain NCPF7367 (National Collection of Pathogenic Fungi Public Health Laboratory, Mycological Reference Laboratory Myrtle Road, Kingsdown, Bristol BS2 8EL) The Candida albicans was a clinical isolate obtained by standard means. […]

[2] = test system: Staphylococcus aureus (Oxford strain); assay: microbe, parasite or virus in culture; type: cell-based; conditions: Oxford strain, 24 h
Procedure: as §1, §2, §3
S. aureus was tested in Isosensitest broth. Isosentitest agar is a standard MIC medium used by many hospital labs for bacterial MICs using a disc diffusion method. The reference standard is Oxoid CM471. Also available in broth form, CM473, for the bacterial broth dilution assay method. NCCLS ref M7-A4. Both the NCCLS methods quoted are the standard methods.
as §4, §5

Fusarium solani 3 (FS3) = assay: Antifungal MIC (Example 4); type: cell-based; conditions: Fusarium solani 3; peptides; Tables 4 and 5
Procedure: (§6) The inventor expanded the work conducted in Example 1 by testing an expanded library of peptides derived from either apolipoprotein B or apolipoprotein E in order to further evaluate polypeptides in accordance with the invention. These experiments were conducted using the following fungal species:
(§7) FS1-FS4 were obtained from Bristol PHLS (British Public Health Laboratory Service UK). Aspergillus fumigatus 293 is publicly available as culture collection strain NCPF7367 (National Collection of Pathogenic Fungi Public Health Laboratory, Mycological Reference Laboratory Myrtle Road, Kingsdown, Bristol BS2 8EL) The Candida albicans was a clinical isolate obtained by standard means.
(§8) The methods used to determine, the IC50 values for each peptide were as described in the Example 1.

Fusarium solani 2 (FS2) = assay: Antifungal MIC (Example 4); type: cell-based; conditions: Fusarium solani 2; peptides; Tables 4 and 5
Procedure: as §6, §7, §8

P. berghei sporozoites = assay: Sporozoite development assay in Hepa 1-6 cells (Example 5); type: cell-based, Plasmodium berghei; conditions: for inhibition of entry of P. berghei into Hep 1-6 cells: sporozoites pre-incubated with polypeptide at 50 μg/ml, plated on cells with peptide present, FIG. 5(A)
Procedure: 3-5 day-old Anopheles stephensi mosquitoes were fed on anesthetized P. berghei (NK65)-infected Swiss Webster mice which had been checked by blood smear for the abundance of gametocyte-stage parasites. Salivary gland sporozoites were harvested on days 18 to 21 post-infective blood meal. The mosquitoes were rinsed in 70% ethanol and washed in Dulbecco's Modified Eagle Medium (DMEM) before salivary gland dissection. The glands were gently ground, spun at 80×g for 3 min to remove mosquito debris and sporozoites counted in a hemocytometer.
Hepa 1-6 cells (ATCC CRL-1830, American Type Culture Collection, Manassas, Va.), a mouse hepatoma cell line permissive for P. berghei sporozoite development were seeded (8×10^4 cells/well) in Lab-Tek permanox chamber slides (Nalgene Nunc Corp., Naperville, Ill.) and grown until confluent. On the day of the experiment, sporozoites were dissected from mosquitoes and pre-incubated with Dulbecco's Modified Eagle Medium (DMEM; Invitrogen, Carlsbad, Calif.) with 1% BSA alone or with the indicated polypeptide at 50 μg/ml for 1 hr at 28° C. and plated on cells in the continued presence of the inhibitor in DMEM containing 10% fetal calf serum (complete medium). After 1 hr at 37° C., the medium containing unattached sporozoites and polypeptide was removed and replaced with complete medium. […] The number of EEFs in each well were counted with a 40× objective on a Nikon fluorescent microscope. In other experiments, Hepa1-6 cells were pretreated with the polypeptides at 50 μg/ml in complete medium for 1 hour, washed and then sporozoites were added in complete medium without polypeptide and the assay was continued as outlined above.

[3] = test system: Candida albicans 6862 (clinical isolate); assay: microbe, parasite or virus in culture; type: cell-based; conditions: 6862 (clinical isolate, 24 h)
Procedure: as §1, §2, §3, §4, §5

[4] = test system: Aspergillus niger (clinical isolate); assay: microbe, parasite or virus in culture; type: cell-based; conditions: clinical isolate
Procedure: as §1, §2, §3, §5

[5] = test system: Aspergillus terreus (clinical isolate); assay: microbe, parasite or virus in culture; type: cell-based
Procedure: as §1, §2, §3, §5

[6] = test system: Acanthamoeba polyphaga (trophozoites), Ros strain; assay: Microtitre plate assay against Acanthamoeba trophozoites (Example 2); type: cell-based; conditions: for MATC = minimum amoebacidal trophozoite concentration: lowest concentration killing the trophozoite challenge
Text: The test compounds were screened against the trophozoites of clinical isolates of Acanthamoeba spp. using a microtitre plate assay procedure. The organisms were Acanthamoeba polyphaga. (see for details on the strain and methodology used: Hughes, R. & Kilvington, S. (2001). A comparison of hydrogen peroxide contact lens disinfection systems and solutions against Acanthamoeba polyphaga. Antimicrob. Agents Chemother. 45: 2038-2043.) Acanthamoeba polyphaga Ros strain was used throughout the study. The strain was originally isolated from an unpublished case of acanthamoeba keratitis in the United Kingdom in 1994.
Use of the microliter plate assay enabled the determination of the minimum amoebacidal trophozoite concentration (MATC), which is the minimum amoebacidal trophozoite concentration (μg/ml)=lowest concentration killing the trophozoite challenge […] and also the minimum inhibitory trophozoite concentration (MITC), which is the minimum inhibitory trophozoite concentration (μg/ml)=lowest concentration stopping the trophozoites from dividing or killing about 50% of population. The values may then be used to select drug concentrations for use in time-kill experiments to study the kinetics of Acanthamoeba killing.

[7] = test system: Fusarium spp 5889 (clinical isolate); assay: Antifungal MIC broth dilution (Example 1); type: cell-based; conditions: RPMI, 48 hrs, >80% reduction
Procedure: as §1, §2, §3, §4, §5

[8] = test system: Fusarium spp 6507 (clinical isolate); assay: Antifungal MIC broth dilution (Example 1); type: cell-based; conditions: RPMI, 48 hrs, >80% reduction
Procedure: as §1, §2, §3, §4, §5

Fusarium solani 1 (FS1) = assay: Antifungal MIC (Example 4); type: cell-based; conditions: Fusarium solani 1; peptides; Tables 4 and 5
Procedure: as §6, §7, §8

[9] = test system: Candida albicans (CA), clinical isolate; assay: Antifungal MIC (Example 4); type: cell-based; conditions: peptides, Tables 4 and 5
Procedure: as §6, §7, §8

Fusarium solani 4 (FS4) = assay: Antifungal MIC (Example 4); type: cell-based; conditions: Fusarium solani 4; peptides; Tables 4 and 5
Procedure: as §6, §7, §8

fungi = type: cell-based; conditions: fungus not specified; read-out: IC50 value for inhibiting fungal growth
Procedure: as §1, §2
The bacterium S. aureus was tested with each of the peptides as a control. […] RPMI is standard Roswell Park Memorial Institute medium (Morton, H. C., (1970) A survey of Commercially Available Tissue Culture Media. In Vitro 6: 89-108).
as §5, §8

| Substance | antibacterial activity (in words) (bacteria) | MIC [1] [µM] | MIC values (>80% reduction) AF [1] [µM] | MIC [2] [µM] | MIC values (>80% reduction) FS3 (Fusarium solani 3 (FS3)) [µM] | MIC values (>80% reduction) FS2 (Fusarium solani 2 (FS2)) [µM] | inhibition of entry of P. berghei into Hep 1-6 cells (P. berghei sporozoites) | MIC [3] [µM] | MIC [4] [µM] | MIC [5] [µM] | MATC = minimum amoebacidal trophozoite concentration [6] [µM] | MIC [7] [µM] | MIC [8] [µM] | MIC values (>80% reduction) FS1 (Fusarium solani 1 (FS1)) [µM] | MIC values (>80% reduction) CA [9] [µM] | MIC values (>80% reduction) FS4 (Fusarium solani 4 (FS4)) [µM] | block of P. berghei entry after pretreatment of cells (P. berghei sporozoites; cells treated with peptide at 50 μg/ml for 1 hour, washed, then sporozoites added, FIG. 5(B)) | IC50 (fungi) [nM] | MITC = minimum inhibitory trophozoite concentration ([6]; lowest concentration stopping trophozoites dividing or killing about 50% of population) [µM] |
| --- | --- | --- | --- | --- | --- | --- | --- | --- | --- | --- | --- | --- | --- | --- | --- | --- | --- | --- | --- |
| apoE134-151: Azuma's apolipoprotein E peptide, 18 amino acids in length (RVRLASHLRKLRKRLLRD; UniProt P02649 152-169, looked up, fragment) | no activity at all | – | – | – | – | – | – | – | – | – | – | – | – | – | – | – | – | – | – |
| apoE134-155: Azuma's apolipoprotein E peptide, 22 amino acids in length (RVRLASHLRKLRKRLLRDADDL; UniProt P02649 152-173, looked up, fragment) | very low antibacterial activity | – | – | – | – | – | – | – | – | – | – | – | – | – | – | – | – | – | – |
| Ac-LRKLRKRLLLRKLRKRLL-NH2 [MU_10] | – | >40 | >40 | >40 | 2.5 | 5 | inhibit entry of P. berghei into Hep 1-6 cells | >40 | >40 | >40 | 207.1 | 10 | >40 | 2.5 | >40 | 5 | – | – | – |
| Ac-WRKWRKRWWWRKWRKRWW-NH2 [MU_4] | – | 2.5 | 1.25 | 5 | 0.3 | 0.3 | inhibit entry of P. berghei into Hep 1-6 cells | 10 | 1.25 | >40 | 41.7 | 2.5 | 10 | 0.3 | 2.5 | 0.3 | retained its ability to block P. berghei entry | ≤ 2500 | 20.8 |
| apoE134-159: Azuma's apolipoprotein E peptide, 26 amino acids in length (RVRLASHLRKLRKRLLRDADDLQKRL; UniProt P02649 152-177, looked up, fragment) | greatly reduced antibacterial activity | – | – | – | – | – | – | – | – | – | – | – | – | – | – | – | – | – | – |
